Entries after “also recorded” stand apart in the source; their conditions may differ. Read-outs that look alike come from different tables or passages of the source.
Columns and labels:
corneal buttons = system: corneal buttons; parameters: species or system rabbit; conditions: for equilibrium modulus change vs paired control (words): Dresden protocol (riboflavin/R5P + UVA); for viscoelastic ratio change vs paired control (words): Dresden protocol (riboflavin/R5P + UVA) vs R5P-exposed-only control
Procedure: • 3 rabbits, (n=8 pairs of 3 mm biopsy punched corneal buttons) • Laser Treatments: • Fidelity II, 1069 nm, 450 mW • Focusing: Marker/spark around, not touching the tissue • Objective: ZEISS 40X, NA=0.1463 • Z: increments 20 μm, 5 layers (several intervals) • 1stlayer 15 μm below surface of focus sparking • XY: 10 μm zigzag grid, 3 mm radius circle • With ˜12 gram compression • Motor speed 2.6 mm/s, full circle treatments: ˜25*5 mins • Sample Preparation: • −3 mm biopsy punch (1BT) • not connected to IV system • Prior to LT: 30 mins in 20% w/w Dextran 500 in PBS • 30 mins in 20% w/w ribose in DPBS (˜1.7M) • Post LT: Trypan blue is used to mark endothelium side • Imaged on the same day in DPBS • Overnight storage in DPBS in 4C fridge • 3 hrs prior to indentation, in room temp PBS • Piuma nano-indentation: • For each cornea button, the average of up to 16 indentations are acquired as
• 3 rabbits, (n=10 pairs of 3 mm biopsy punched corneal buttons) • 3 mm biopsy punch • not connected to IV system • Treatment Protocol-1 hr submerged in 20% w/v Ribose for all samples • 1 hr of UV-A lamp irradiation (control was not under UV) • Post Treatment Trypan blue is used to mark endothelium side • Imaged on the same day in DPBS • Overnight storage in DPBS in 4C fridge • 3 hrs prior to indentation, in room temp PBS • Piuma nano-indentation: • For each cornea button, the average of up to 16 indentations are acquired as representative modulus • The average of the representative modulus are presented in appended FIGS. 1-25.
Nano-Indentation: The corneal buttons were stored in PBS in a 4C fridge overnight for hydration equilibrium. Indentations of 5 μm depth using 29-35 μm diameter spherical indenters were performed on the anterior surface of the cornea buttons to acquire 25-second load-relaxation curves. For each button, the average of up to 16 indentations was used as the representative result. The equilibrium modulus and the viscoelastic ratio, defined as equilibrium modulus over instantaneous modulus, were calculated and compared.
Nanoindentation: Indentations were performed on the anterior surface of the cornea buttons. The equilibrium modulus E∞, instantaneous modulus Eo, and the viscoelastic ratio E∞/Eo, were calculated and compared.
After overnight incubation in PBS at 4C to reach equilibrium hydration, corneal buttons in Group A were allowed to return to room temperature the next morning after the respective treatment days while glued to the bottom of a petri-dish with the anterior surface of the corneal button facing upward. A displacement-controlled indenter (Piuma, Optics 11, Amsterdam, The Netherlands) was used to perform micro-indentations on top of the sample surface submerged in PBS; for each sample, multiple tests were performed following an array of 16 equally spaced (4×4) contact points with a spacing of 100 μm to 150 μm, covering roughly a 0.4×0.4 mm^2 area at the center of each corneal button. A spherical glass probe with a 34 μm radius and 0.2 N/m stiffness was used for samples in Group 1A; another spherical glass probe with a 25.5 μm radius and 4.09 N/m stiffness was used for Group 1B, 1C, 1D, and 2C. The indentation process at each contact point was comprised of three consecutive steps of loading Piezo movement of 5 μm for 2 seconds, holding time of 5 s, and unloading for 2 seconds. The load-relaxation curves obtained after indenting each point were then processed using a viscoelastic model to obtain equilibrium modulus and viscoelastic ratio following a fitting algorithm developed by Oyen.

corneal tissues = assay: Multiphoton/confocal imaging: autofluorescence and second harmonic generation signal; parameters: species or system rabbit; conditions: anterior 100 μm
From the text: • The grey value of the top 100 μm (11 Z-stacks) of the cornea button was summed; • The average of the grey value summations are presented in appended FIGS. 1-25. • […] • The average of the grey value summations and Representative images at ˜600*600*100 μm in x, y, z are presented in appended FIGS. 1-25. The autofluorescence and second harmonic generation (SHG) signals of the corneal tissues in Group A were investigated to reveal the presence of CxLs and structural changes in collagenous ECM after hydration equilibrium in PBS on the same night of individual treatment days. Imaging was performed with a Nikon TI Eclipse inverted microscope using a Ti: Sapphire laser Chameleon Ultra II at 860 nm as the light source and a Nikon Apo LWD 20× objective for focusing. The emission filter was set at the FITC channel (475-650 nm, peak 525 nm) for autofluorescence signal collection and at the DAPI channel (400-600 nm, peak at 457 nm) for SHG signal collection. The XY scanning area for each sample was 635 μm by 635 μm, and Z scanning was 100 μm deep with 10 μm increments (stack of 11 images per sample). The summation of the average grey value processed in Image J at each layer was used as the representative signal strength for each sample.

| Substance | equilibrium modulus change (corneal buttons; 20% Dextran + femtosecond laser 755-760 nm ~850 mW, coverslip, without oxygen) | second harmonic generation signal intensity change vs paired control (words) (corneal tissues; Dresden protocol vs R5P exposed control) | autofluorescence signal intensity change vs paired control (words) (corneal tissues; Dresden protocol vs R5P only control) | equilibrium modulus change vs paired control (words) (corneal buttons) | viscoelastic ratio change vs paired control (words) (corneal buttons) | viscoelastic ratio change vs paired control (words) (corneal buttons; listed as riboflavin) | equilibrium modulus change vs paired control (words) (corneal buttons; listed as riboflavin) | equilibrium modulus (corneal buttons; Group 1D positive control: Dresden protocol, 0.1% R5P in 20% dextran 500 + UVA) [kPa] |
| --- | --- | --- | --- | --- | --- | --- | --- | --- |
| Dextran | significantly increased the equilibrium modulus of the cornea, but the magnitudes are small | – | – | – | – | – | – | – |
| riboflavin-5-phosphate [R5P, reference compound] | – | increased SHG signal; also recorded: statistically significant increase; also recorded: Statistical significance | increased; also recorded: Statistical significance | statistically significant differences | more elastic response; also recorded: significantly different time-dependent elastic response | significant increase; also recorded: significantly increased | significantly increased | 100 |
